19 molecules from patent US6413937B1, “Combinations for use in increasing the potency of a substrate for multidrug resistance related protein” (Dublin City University and Enterprise Ireland, priority 1996, dated 2002) can be followed below.

Assay [1] concerns DLKP cell line. Description: miniaturised in vitro colorimetric cell survival assay (acid phosphatase end-point), DLKP. The format is cell-based, human. The method, then: (§1) All the results presented in this Example for the DLKP, A549 and OAW42-SR cell lines were derived using the same miniaturised in vitro calorimetric assay system. On Day 1 of the assay 1000 cells/well/100 μl were plated into 96-well plates. Cells were allowed to attach overnight and cell viability was visually assessed. […] NSAID plus chemotherapeutic drug) to be analysed were added onto the cells. The individual drugs were added separately in 50 μl quantities (4× stocks, to take into account the dilution effect of having 200 μl final volume in each well). The drugs were left on the cells for five further days (Day 7) and cell number was determined using the acid phosphatase end-point assay which uses p-nitrophenol phosphate as substrate (Martin, A. and Clynes, M. (1991) In Vitro Dev. Biol., 27A, 183-184). On Day 7 the culture medium was removed from the cells and they were washed once with phosphate buffered saline (PBS). […] After the incubation period 50 μl of 1N NaOH was added to each well to develop the colour. The plates were then read at 405 nm (reference 620 nm) on an ELISA plate-reader. […] All results are the cell survival means ±S.D. from a minimum of three experiments.

Assay [2] deals with A549 cell line. As to the kind of experiment: miniaturised in vitro colorimetric cell survival assay (acid phosphatase end-point), A549. The format is cell-based, human. The method, then:
as §1

Assay [3] concerns GST prepared from DLKP cells. Description: total GST assay with 1-chloro-2,4-dinitrobenzene. The format is biochemical, human. The method, then:
The other NSAIDs were tested in a total GST assay (Habig, W. H., and Jakoby, W. B., (1981); Methods Enzymol., 77: 218-231). Total cellular GST activity was assayed, using 1-chloro-2,4-dinitrobenzene as a substrate, according to the method of Habig, W. H., and Jakoby, W. B., (1981); supra. Due to spectrophotometric interference at 340 nm, caused by the majority of the NSAIDs, the assays were all performed at 360 nm, without any apparent effect on the rate of the control reaction The results are shown in Table 5.

Assay [4] concerns MRP-specific substrates. As to the kind of experiment: screen for enhancement of toxicity of MRP substrates by NSAIDs. Particulars: summary statements. The format is cell-based.
The subject of assay [5] is DLKP cells. As to the kind of experiment: Example 5 miniaturised in vitro cell toxicity assay, DLKP. The format is cell-based, human. The method, then: For the monolayer cell lines miniaturised in vitro assays were used to determine drug toxicity. On Day I cells were seeded at 1×10^3 cells/well in a 96-well plate and left to attach overnight. Drug was added on Day 2, and the assay was terminated on Day 7. Cell number was then evaluated by using one of two colorimetric end-point […]: the acid phosphatase assay (Martin, A., and Clynes, M. (1991); In vitro Cell and Development Biology, 27A: 183-184) or the crystal violet dye elution assay (Martin, A., and Clynes, M. (1993); Cytotechnology, 11:49-58). All assays were performed in triplicate.

The target in assay [6] is T1, MRP pump (Homo sapiens, UniProt P33527).
T1 construct: inside-out plasma membrane vesicles prepared from HL60ADR cells; endogenous in cells; host or cells: HL60ADR cells (plasma membrane vesicles)
As to the kind of experiment: ATP-dependent transport of [3H]LTC4 into inside-out plasma membrane vesicles from HL60ADR cells. The format is biochemical. Particulars: for MRP-pump inhibitory activity: conclusion from Table 4. The method, then: To determine if the NSAIDs were acting directly on the MRP pump the uptake of [^3H]LTC4 into inside-out plasma membrane vesicles prepared from HL60ADR cells was examined using a rapid filtration procedure (Ishikawa,T., et al. (1994); J. Biol. Chem. 269 (46); 29085-29093). ATP-dependent transport of [^3H]LTC4 into the membrane vesicles was measured by a rapid filtration method using a Millipore sampling manifold. The membrane vesicles were thawed at 37° C. before use and kept on ice. The reaction components consisted of 0.25 M sucrose/10 mM Tris.HCl pH 7.4/1 mM ATP/10 mM MgCl2/10 mM creatine phosphate/ 110 μg/ml creatine kinase and 10 nM [^3H]LTC4, with 50 μg of the inside-out vesicle preparation, in a final volume of 110 μl. This suspension was incubated at 37° C., with gentle mixing, and aliquots, 20 μl, were taken at the indicated points. Those aliquots were diluted in 1 ml of ice-cold incubation buffer before being applied to 0.22 μm Millipore GSWP nitrocellulose filters, pre-soaked in ice-cold incubation buffer, under suction. The filters were subsequently washed with 3 ml ice-cold incubation buffer, and absorbed radioactivity was measured using a scintillation counter (Beckman). In control experiments ATP was replaced with 5μ-AMP to determine the ATP-dependent transport.

Assay [7] has as its system DLKP-7 cells. As to the kind of experiment: adriamycin efflux from loaded cells, HPLC. The format is cell-based. As to the method:
DLKP-7 cells were seeded into 75 cm^2 flasks at 0.5×10^6 cells/10 ml ATCC medium. The cells were left for 2 days, the ATCC medium was removed and fresh medium containing adriamycin (0.5 μg/ml) was added. Following a 2 hour incubation this medium was removed, the flasks were washed twice with PBS, 10 ml ATCC medium or ATCC medium containing the test NSAID was added, and the cells were incubated for a further 4 hr. The cells were trypsinised and the pellet was frozen at −20° C. Duplicate flasks for each time point were prepared. The NSAIDs used were indomethacin 10 μg/ml and piroxicam 20 μg/ml.
The amount of adriamycin in the cells was quantified using liquid-liquid extraction and reverse-phase HPLC analysis. The frozen cell pellets were thawed and resuspended in […] of water/100 μl of 33% silver nitrate and mixed for 5 min. 300 μl of methanol, containing 1.5 μg of daunorubicin as an internal standard (IS), and 1.3 ml of acetonitrile were then added and the tubes mixed for a further 5 min. The mixture was transferred to glass tubes and kept at 4° C. for 1 hr. The tubes were then centrifuged at 1000 g for 15 min. to pellet any solid material. 1.1 ml of the supernatant was removed to HPLC autosampler vials (Labquip, Dublin, Ireland). The solvent was evaporated off at room temperature under a stream of nitrogen gas.
The extract was resuspended in 50 μl of mobile phase 1 (MP1): 32 ml of 0.1 M phosphoric acid mixed with 244 ml of ultrapure water, pH: 2.3 (adjusted upwards with a few drops of 1N potassium hydroxide) to which 124 ml of acetonitrile was added and the final mixture was degassed in a sonicating bath for 5 min. The second mobile phase (MP2) consisted of acetonitrile. The resuspended sample (20 μl) was automatically injected into the HPLC system. The HPLC system comprised a Beckman System Gold 507 autosampler, 125 pump and 166 detector. The MP was pumped through a C18 reversed-phase Prodigy 5 μm particle size ODS-3 column (Phenomenex, Macclesfield, England) (dimensions 150×4.6mm) and absorbance was measured at 253 nm. For the first 14 min. of the chromatographic run MP 1 was pumped at 0.5 ml/min. From 14 min. to 20 min. the column was switched to MP 2. At 20 min. the column was switched back to MP 1 and the flow rate increased to 1 ml/min. At 30 min. the flow rate was brought back to 0.5 ml/min. The run continued for a further 5 min. giving a total run time of 35 min. The amount of adriamycin present was quantified by measuring its peak area and the peak area of the IS. The peak area of the adriamycin was divided by the area of the IS peak and the ratio plotted against a concentration series for spiked adriamycin samples.

T1 sequence (P33527 whole entry): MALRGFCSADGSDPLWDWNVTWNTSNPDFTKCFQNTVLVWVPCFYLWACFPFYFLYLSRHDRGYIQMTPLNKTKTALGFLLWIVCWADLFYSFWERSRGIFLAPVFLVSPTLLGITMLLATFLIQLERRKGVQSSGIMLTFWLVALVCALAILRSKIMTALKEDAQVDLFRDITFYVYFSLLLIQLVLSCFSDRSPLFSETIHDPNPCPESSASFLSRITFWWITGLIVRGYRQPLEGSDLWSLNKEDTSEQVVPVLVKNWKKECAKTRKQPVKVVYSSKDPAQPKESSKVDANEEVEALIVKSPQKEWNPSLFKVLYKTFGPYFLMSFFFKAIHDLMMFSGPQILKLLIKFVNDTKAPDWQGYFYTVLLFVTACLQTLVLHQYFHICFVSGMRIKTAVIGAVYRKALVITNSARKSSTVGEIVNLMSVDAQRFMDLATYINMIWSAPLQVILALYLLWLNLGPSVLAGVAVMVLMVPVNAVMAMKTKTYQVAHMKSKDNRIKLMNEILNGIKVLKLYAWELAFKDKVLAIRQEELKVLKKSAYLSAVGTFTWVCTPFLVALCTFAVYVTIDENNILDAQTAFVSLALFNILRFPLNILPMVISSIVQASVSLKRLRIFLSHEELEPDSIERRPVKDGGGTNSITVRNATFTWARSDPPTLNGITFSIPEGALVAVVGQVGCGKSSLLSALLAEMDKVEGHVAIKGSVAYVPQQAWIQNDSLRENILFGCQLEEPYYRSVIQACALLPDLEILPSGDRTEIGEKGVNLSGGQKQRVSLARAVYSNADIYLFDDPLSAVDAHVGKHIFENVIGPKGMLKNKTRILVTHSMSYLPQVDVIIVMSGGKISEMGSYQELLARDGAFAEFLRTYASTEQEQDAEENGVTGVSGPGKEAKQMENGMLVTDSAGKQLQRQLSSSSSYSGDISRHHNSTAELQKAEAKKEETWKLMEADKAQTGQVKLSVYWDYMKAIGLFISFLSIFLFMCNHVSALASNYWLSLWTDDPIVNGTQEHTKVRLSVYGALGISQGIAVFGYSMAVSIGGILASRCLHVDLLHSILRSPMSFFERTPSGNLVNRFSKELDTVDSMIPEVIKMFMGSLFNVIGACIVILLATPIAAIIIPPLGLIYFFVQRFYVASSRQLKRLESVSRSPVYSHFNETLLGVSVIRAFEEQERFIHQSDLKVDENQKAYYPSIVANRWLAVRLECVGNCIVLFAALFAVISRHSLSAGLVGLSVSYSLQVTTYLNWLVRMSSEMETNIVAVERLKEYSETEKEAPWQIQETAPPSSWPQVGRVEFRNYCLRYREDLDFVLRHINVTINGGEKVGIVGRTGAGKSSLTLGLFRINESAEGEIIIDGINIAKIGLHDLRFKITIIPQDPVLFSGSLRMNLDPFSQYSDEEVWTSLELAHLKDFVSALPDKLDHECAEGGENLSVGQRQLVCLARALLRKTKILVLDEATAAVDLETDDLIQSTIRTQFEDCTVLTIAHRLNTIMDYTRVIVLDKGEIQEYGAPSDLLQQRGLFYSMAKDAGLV

Turning to `O=c1[nH]cc(F)c(=O)[nH]1` [5-FU, 5-flurouracil], the “% cell survival” value in assay [1] (iv) 5-FU 0.5 μg/ml alone) is 66.18 ± 1.4%.

On to `COc1ccc2c(c1)c(CC(=O)OCC(=O)O)c(C)n2C(=O)c1ccc(Cl)cc1` [Acemetacin, acemetacin], for which the “% cell survival” value turned out to be 102.08 ± 8.76% in assay [2] (viii) Acemetacin 11.50 μg/ml, alone or + Adriamycin 15 ng/ml); 97.30 ± 8.46% in assay [2] (viii) Acemetacin 19.20 μg/ml, alone or + Adriamycin 15 ng/ml); 85.04 ± 10.13% in assay [2] (viii) Acemetacin 37.50 μg/ml, alone or + Adriamycin 15 ng/ml). Further, the “% Inhibition of GST” value in assay [3] (0.25 mM) was 58%. Besides, in assay [4], the “enhancement of toxicity of MRP substrates” value (“enhancement” for short) is given as “have been found to enhance the toxicity of MRP-specific substrates”.

Take `O=C(O)Cc1ccccc1Nc1c(Cl)cccc1Cl` [Diclofenac]: the “% Inhibition of GST” value in assay [3] (0.75 mM) is listed as 54%.

Regarding `COc1cccc2c1C(=O)c1c(O)c3c(c(O)c1C2=O)C[C@@](O)(C(=O)CO)C[C@@H]3O[C@H]1C[C@H](N)[C@@H](O)[C@H](C)O1` [Epirubicin, epirubicin], the “% cell survival” value in assay [5] (Epirubicin 1 ng/ml alone) stood at 69.08 ± 3.6%.

For the molecule `O=C(O)CCC(=O)c1ccc(-c2ccccc2)cc1` [Fenbufen], the “% Inhibition of GST” value in assay [3] (1 mM) is 15.6%.

Consider `CC(C(=O)O)c1cccc(Oc2ccccc2)c1` (centres unmarked) [Fenoprofen], for which, in assay [3] (1 mM), the “% Inhibition of GST” value is on record as 22.5%.

Take `O=C(O)c1ccccc1Nc1cccc(C(F)(F)F)c1` [Flufenamic Acid]: the “% Inhibition of GST” value in assay [3] (0.75 mM) is on record as 41.2%.

Take `CC(C)Cc1ccc(C(C)C(=O)O)cc1` (centres unmarked) [Ibuprofen]: the “% cell survival” value in assay [2] (xvi) Ibuprofen 3.06 μg/ml, alone or + Adriamycin 17 ng/ml) was determined as 100.37 ± 7.94%; in assay [2] (xvi) Ibuprofen 7.92 μg/ml, alone or + Adriamycin 17 ng/ml), 96.78 ± 11.43%; in assay [2] (xvi) Ibuprofen 15.72 μg/ml, alone or + Adriamycin 17 ng/ml), 95.58 ± 8.50%. Moreover, in assay [3] (1 mM), the “% Inhibition of GST” value was determined as 18.5%.

As for `CC(C(=O)O)c1cccc(C(=O)c2ccccc2)c1` (centres unmarked) [Ketoprofen], the “% Inhibition of GST” value in assay [3] (1 mM) is on record as 11.2%.

With `c1ccc([C@H]2CN3CCSC3=N2)cc1` [Levamisole], the “% Inhibition of GST” value in assay [3] (1 mM) came to 0%.

As for `Cc1cccc(Nc2ccccc2C(=O)O)c1C` [Mefenamic acid, mefenamic acid], the “% cell survival” value in assay [2] (x) Mefenamic acid 2.30 μg/ml, alone or + Adriamycin 15 ng/ml) was found to be 98.49 ± 7.66%; in assay [2] (x) Mefenamic acid 4.00 μg/ml, alone or + Adriamycin 15 ng/ml) it was 95.38 ± 9.21%; in assay [2] (x) Mefenamic acid 7.90 μg/ml, alone or + Adriamycin 15 ng/ml), 85.23 ± 7.80%.

Consider `COc1ccc2cc([C@H](C)C(=O)O)ccc2c1` [Naproxen], for which the “% Inhibition of GST” value in assay [3] (1 mM) was found to be 17%. Further, the MRP-pump inhibitory activity result in assay [6] is “do not”.

Take `CN1C(C(=O)Nc2ccccn2)=C(O)c2ccccc2S1(=O)=O` [Piroxicam]: at 302 µM the inhibition in assay [6] (0.302 mM) was 0%. Moreover, in assay [6], the MRP-pump inhibitory activity entry is given as “do not”. In addition, the “% Adriamycin content at 0 h” value in assay [7] (cells loaded with adriamycin 0.5 μg/ml 2 h, indomethacin 10 μg/ml, piroxicam 20 μg/ml, 0 h) amounted to 100%. For the same molecule, the “% Adriamycin content at 4 h” value in assay [7] (cells loaded with adriamycin 0.5 μg/ml 2 h, indomethacin 10 μg/ml, piroxicam 20 μg/ml, 4 h) is listed as 67 ± 10%. Moreover, the “level of adriamycin within the treated cells” value in assay [7] (during the 4 hours of the experiment) is “gradually decreased”. In addition, the “enhancement” value in assay [4] was “negative”.

Consider `O.O.O.O=C([O-])[C@H]([O-])[C@@H]([O-])C(=O)[O-].O=C([O-])[C@H]([O-])[C@@H]([O-])C(=O)[O-].[K+].[K+].[Sb+3].[Sb+3]` [Potassium Antimonyl Tartrate, Potassium antimonyl tartrate], for which the “% cell survival” value in assay [1] (vii) Potassium Antimonyl Tartrate 1.5 μg/ml alone) stood at 39.98 ± 3.3%.

Consider `CSc1ccc(/C=C2/C(C)=C(CC(=O)O)c3cc(F)ccc32)cc1` [Sulindac sulfide, sulindac sulfide], for which the “% cell survival” value in assay [2] (xii) Sulindac sulfide 1.40 μg/ml, alone or + Adriamycin 15 ng/ml) amounted to 105.83 ± 6.50%; in assay [2] (xii) Sulindac sulfide 2.70 μg/ml, alone or + Adriamycin 15 ng/ml) it was 104.91 ± 5.57%; in assay [2] (xii) Sulindac sulfide 6.00 μg/ml, alone or + Adriamycin 15 ng/ml) it was 90.19 ± 9.63%.

In the case of `CC1=C(CC(=O)O)c2cc(F)ccc2/C1=C\c1ccc(S(C)(=O)=O)cc1` [Sulindac sulfone, sulindac sulfone], the “% cell survival” value is on record as 101.87 ± 10.52% in assay [2] (xiii) Sulindac sulfone 4.50 μg/ml, alone or + Adriamycin 15 ng/ml); 102.21 ± 8.88% in assay [2] (xiii) Sulindac sulfone 8.90 μg/ml, alone or + Adriamycin 15 ng/ml); 76.77 ± 6.49% in assay [2] (xiii) Sulindac sulfone 19.50 μg/ml alone, or (printed 19.50 mg/ml) + Adriamycin 15 ng/ml).

With `COc1cc([C@@H]2c3cc4c(cc3[C@@H](O[C@@H]3O[C@@H]5CO[C@@H](c6cccs6)O[C@H]5[C@H](O)[C@H]3O)[C@H]3COC(=O)[C@H]23)OCO4)cc(OC)c1O` [Teniposide, teniposide], in assay [5] (Teniposide 6.25 ng/ml alone), the “% cell survival” value was 79.79 ± 0.97%.

Consider `Cc1cc(CC(=O)O)n(C)c1C(=O)c1ccc(Cl)cc1` [Zomepirac, zomepirac], for which the “% cell survival” value in assay [2] (xv) Zomepirac 20.70 μg/ml, alone or + Adriamycin 15 ng/ml) amounted to 96.79 ± 12.10%; in assay [2] (xv) Zomepirac 38.80 μg/ml, alone or + Adriamycin 15 ng/ml), 94.89 ± 13.91%. The “% Inhibition of GST” value in assay [3] (0.25 mM) came out at 56%. The “enhancement” value in assay [4] is “have been found to enhance the toxicity of MRP-specific substrates”.

On to `CCc1cccc2c3c([nH]c12)C(CC)(CC(=O)O)OCC3` (centres unmarked) [etodolac], for which, in assay [4], the “enhancement” value is reported as “does not exhibit the enhanced cytotoxicity”.
